In patent publication US12653896B2, “Targeted dendrimer conjugates” (Starpharma Pty Ltd, priority 2019, dated 2026):

How the values were obtained:
MDA-MB-231/HER2 cells = experiment: In vitro association study (flow cytometry, Cy5), MDA-MB-231/HER2; assay type: cell-based, human
Method: (§1) MDA-MB-231, MDA-MB-231/HER2 (HER2 knock in) (as described above), or SKOV-3 cells were seeded in a 24-well plate (1×10^5 cells per well) in 500 μL of appropriate growth media with the addition of 10% (v/v) fetal bovine serum (FBS) and incubated with compound 36 or 41 at 3.33 nM, […] atmosphere. After incubation, non-binding/non-associating particles were removed from adherent cells by gently washing with DPBS three times (300 μL/well). Cells were removed from plates by treatment with TrypLE™ Express Enzyme (1×), no phenol red (150 μL/well) for 5-10 min at room temperature. The plates were then placed on ice. Cellular binding and association of sample were then determined through flow cytometry by the acquisition of the signal from Cy5.

MDA-MB-453 cells = experiment: Cell association by flow cytometry (Cy5), MDA-MB-453; assay type: cell-based, human; details: for Mean Fluorescence Intensity (Cy5), MFI: MDA-MB-453, 1 hour on ice, triplicate wells; for binding to HER2-positive MDA-MB-453 cells: result in words
Method: The HER2-expressing human metastatic carcinoma cell line MDA-MB-453 (ATCC HTB-131) and the HER2-negative epithelial adenocarcinoma cell line MDA-MB-231 (ATCC HTB-26) were maintained in Dulbecco's Modified Eagle's Medium (DMEM) containing 10% FBS and penicillin-streptomycin (100 U/mL) at 37° C. under a 5% CO2 humidified atmosphere and subcultured prior to confluence using trypsin. Human adenocarcinoma ovary cell line SKOV-3 (ATCC® HTB-77) cells were maintained in RPMI media with the addition of 10% (v/v) FBS and penicillin-streptomycin (100 U/mL) at 37° C. in a 5% CO2 humidified atmosphere and subcultured prior to confluence.
For measurement of cell association by flow cytometry, cells in suspension were added at 1×10^5 cells per well to a 96 well assay plate. Following incubation with nanobody-dendrimer or unconjugated dendrimer for 1 hour on ice, cells were washed three times with 200 ul of DMEM containing 10% FBS to remove unbound dendrimer. Cells were then resuspended in chilled Fluorobrite media supplemented with 10% FBS and Cy5 fluorescence measured using 642 nm excitation and emission collected between 661-691 nm. To measure internalisation kinetics, nanobody-dendrimer was incubated with cells for 24, 4, 1, 0.5 and 0.1 hours at 37° C. before unbound nanobody-dendrimer was removed by washing and analysed by flow cytometry.

MDA-MB-231 cells = experiment: In vitro association study (flow cytometry, Cy5), MDA-MB-231; assay type: cell-based, human
Method: as §1

ErbB2-ECD = biological target: T1, ErbB2-ECD (Homo sapiens, UniProt P04626); experiment: SPR binding to immobilized ErbB2-ECD; details: result in words
T1 construct: Direct Immobilization of ErbB2-ECD
Method: Using a ProteOn XPR36 instrument, ErbB2-ECD was immobilized at 25° C. onto a GLC sensor chip surface (Bio-Rad), with HBS-P+ running buffer (10 mM HEPES, pH 7.4, 150 mM NaCl, 0.05% Tween 20). Standard amine coupling methodology described in Bio-Rad's amine coupling kit was utilized for this immobilization. Lane 1 was activated with a 50:50 mixture of EDC (0.5 mM) and sulfo-NHS (0.125 mM). ErbB2 protein was diluted to […] in 10 mM sodium acetate, pH 5.0 and injected over the activated surface channel. Any remaining activated sites were blocked with 1 M ethanolamine-HCl, pH 8.5.
All SPR binding experiments were performed at 25° C. using HBS-EP+/BSA (10 mM HEPES, pH 7.4, 150 mM NaCl, 3 mM EDTA, 0.05% Tween20, 0.1 mg/ml BSA) as the instrument running buffer (RB). Following immobilization procedures, various concentrations of anti-ErbB2 affibodies and their MMAE-dendrimer conjugates were injected at 60 μl/min over immobilized ErbB2 proteins and their association monitored for 90 sec. Running buffer was subsequently injected over bound Ab-ErbB2 complexes and dissociation monitored for up to 60 min. […] All binding measurements were performed in triplicate.
Collected experimental data were processed using Scrubber-Pro software (www.biologic.com.au). […]

Substance | Mean fluorescence intensity (MDA-MB-231/HER2 cells; MDA-MB-231/HER2, 1 h) | Percent of cellular association (MDA-MB-231/HER2 cells; MDA-MB-231/HER2, 1 h) | Mean fluorescence intensity (MDA-MB-231/HER2 cells; MDA-MB-231/HER2, 2 h) | Mean fluorescence intensity (MDA-MB-231/HER2 cells; MDA-MB-231/HER2, 4 h) | Mean fluorescence intensity (MDA-MB-231/HER2 cells; MDA-MB-231/HER2, 24 h) | Mean Fluorescence Intensity (Cy5), MFI (MDA-MB-453 cells) | binding to HER2-positive MDA-MB-453 cells (MDA-MB-453 cells) | Mean fluorescence intensity (MDA-MB-231 cells; MDA-MB-231, 1 h) | Percent of cellular association (MDA-MB-231 cells; MDA-MB-231, 1 h) | Mean fluorescence intensity (MDA-MB-231 cells; MDA-MB-231, 2 h) | Percent of cellular association (MDA-MB-231 cells; MDA-MB-231, 2 h) | Mean fluorescence intensity (MDA-MB-231 cells; MDA-MB-231, 4 h) | Mean fluorescence intensity (MDA-MB-231 cells; MDA-MB-231, 24 h) | Percent of cellular association (MDA-MB-231/HER2 cells; MDA-MB-231/HER2, 2 h) | Percent of cellular association (MDA-MB-231/HER2 cells; MDA-MB-231/HER2, 4 h) | Percent of cellular association (MDA-MB-231/HER2 cells; MDA-MB-231/HER2, 24 h) | binding to ErbB2 (ErbB2-ECD)
(MeTzPh)PEG4CO-NHPEG24CO—[N(PN)2][Lys]8[((α-NHCy5)1(α-NHAc)7)(ε-NH-COPEG1100)8] [Compound 37] | 293.0 ± 8.5 | 2.47 ± 0.81% | 268.0 ± 11.3 | 241.5 ± 17.7 | 206.0 ± 2.8 | 3.097 ± 0.01 | did not bind | 258.3 ± 19.6 | 1.10 ± 0.35% | 256.7 ± 24.8 | 1.23 ± 0.47% | 221.3 ± 3.5 | 215.3 ± 4.9 |  |  |  | 
(MeTzPh)PEG4CO-NHPEG24CO—[N(PN)2][Lys]16[((α-NHCy5)1(α-NHAc)15)(ε-NH-COPEG1100)16] [Compound 38] | 269.0 ± 19.8 | 0.90 ± 0.35% | 225.0 ± 5.7 | 198.0 ± 2.8 | 175.5 ± 0.7 | 6.827 ± 0.07 | did not bind | 239.3 ± 1.2 |  | 230.7 ± 2.3 |  | 217.3 ± 3.2 | 195.7 ± 0.6 | 0.50 ± 0.10% | 0.50 ± 0.35% | 0.37 ± 0.15% | 
(MeTzPh)PEG4CO-NHPEG24CO—[N(PN)2][Lys]32[((α-NHCy5)1(α-NHAc)31)(ε-NH-COPEG1100)32] [Compound 39] | 257.5 ± 12.0 |  | 249.0 ± 15.6 | 207.0 ± 2.8 | 207.5 ± 40.3 | 4.349 ± 0.08 | did not bind | 252.0 ± 6.0 | 0.97 ± 0.12% | 249.0 ± 8.7 |  | 247.3 ± 7.2 | 196.3 ± 3.1 |  | 0.47 ± 0.21% |  | 
Azido-PEG24CO—[N(PN)2[Lys]8[(α-NH-Glu-Val-Cit-PAB-MMAE)8(ε-NH-COPEG2000)8] [Compound 21] |  |  |  |  |  |  |  |  |  |  |  |  |  |  |  |  | No binding
Azido-PEG24CO—[N(PN)2][Lys]8[(α-NH-Glu-Val-Cit-PAB-MMAE)8(ε-NH-COPEG1100)8] [Compound 20] |  |  |  |  |  |  |  |  |  |  |  |  |  |  |  |  | No binding
